Reference: PubChem BioAssay AID1845204 (Molecular Pharmacology Branch, DTP, NCI, 2023)

System: HSSY-II tumor spheroid viability
Experiment: Anticancer human tumor HSSY-II cell line growth inhibition;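 also: spheroids exposed to compounds for seven days before reading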;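 as to viability, T/C: percent of DMSO vehicle control viability so 100% = untreated level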
Conditions: spheroids with HUVEC and MSC; for IC50: curve of first compound; for viability, T/C: stronger effect = lower value
From the text: Multicellular complex tumor spheroid response to DNA repair inhibitors in combination with DNA-damaging drugs
This study explores the anticancer activities of DNA-damaging drugs and inhibitors of DNA damage repair, both as single agents and in combinations. Complex tumor spheroids comprised of malignant cells, endothelial cells and mesenchymal stem cells served as an in vitro model for human solid tumors. This model system incorporates physiologically relevant features and patient-derived or established malignant cell lines with clinically relevant genetic alterations from many tumor types. Twenty-six patient-derived or established malignant cell lines were evaluated representing sarcoma, melanoma, small cell lung cancer (SCLC), non-small cell lung cancer (NSCLC), as well as bladder, ovarian and pancreatic cancers. The concentration ranges selected for each drug and investigational agent were based upon clinically achievable concentrations if the clinical Cmax of the agent was known.
Compounds. The drugs and compounds olaparib (NSC753686), talazoparib (NSC767125), berzosertib (NSC777718), elimusertib (NSC800525), nedisertib (NSC802822), VX-984 (NSC792969), AZD-1390 (NSC803789), temozolomide (NSC362856), topotecan (NSC609699), trabectedin (NSC813783), staurosporine (NSC755774), and gemcitabine (NSC613327) were obtained from the National Cancer Institute (NCI) Developmental Therapeutics Program Chemical Repository. The FDA-approved anticancer drug set is available from the Developmental Therapeutics Program at https://dtp.cancer.gov/organization/dscb/obtaining/available_plates.htm. […] The stock solutions were prepared in dimethyl sulfoxide (DMSO, Sigma-Aldrich, St. Louis, MO, cat. D2650) at 400-fold the tested concentration and stored at -70 degrees C. Prior to their use, the stock solutions were diluted in fresh medium and the final DMSO concentration in the assay was 0.25% (v/v). All drugs and investigational agents were tested over a range starting from a high concentration at or near the clinical Cmax and decreasing in half-log increments. If the clinical Cmax for an agent had not been determined, the highest concentration tested was 10 microM.
Cell Lines. The patient-derived cancer cell (PDC) lines: 156681-154-R-J1-PDC, 283228-195-R-J1-PDC, 287954-098-R-J1-PDC, 292921-168-R-J2-PDC, 349418-098-R-PDC, 425362-245-T-J1-PDC, 556581-035-R-J1-PDC, and BL0293-F563-PDC were received from the NCI Patient-Derived Models Repository (PDMR, https://pdmr.cancer.gov). The established cell lines HS-SY-2 (RRID:CVCL_8719), MPNST, and SYO-1 (RRID:CVCL_7146) were obtained from the Sloan Kettering Institute. The alveolar soft parts sarcoma cell line ASPS-1 (RRID:CVCL_S738) was established at the NCI and grown from internal seed stocks. The following established cell lines were purchased from the American Type Culture Collection (ATCC, Manassas, VA): G-401 (ATCC, cat. CRL-1441, RRID:CVCL_0270), SW982 (ATCC, cat. HTB-93, RRID:CVCL_1734), VA-ES-BJ (ATCC, cat. CRL-2138, RRID:CVCL_1785), NCI-H719 (ATCC, cat. CRL-5837, RRID:CVCL_1582), NCI-H196 (ATCC, cat. CRL-5823, RRID:CVCL_1509), NCI-H841 (ATCC, cat. CRL-5845, RRID:CVCL_1595), NCI-H1618 (ATCC, cat. CRL-5879, RRID:CVCL_1480), NCI-H1876 (ATCC, cat. CRL-5902, RRID:CVCL_1503), DMS 114 (ATCC, cat. CRL-2066; RRID:CVCL_1174), NCI-H211 (ATCC, cat. CRL-5824; RRID:CVCL_1529), and SW 1271 (ATCC, cat. CRL-2177, RRID:CVCL_1716). The small cell lung cancer cell line COR-L88 was purchased from Sigma-Aldrich (cat. 92031917-1VL, RRID:CVCL_1141). The non-small cell lung cancer cell lines NCI-H226 (RRID:CVCL_1544) and NCI-H322M (RRID:CVCL_1557) were established at the NCI and grown from internal seed stocks. Pooled donor human umbilical vein endothelial cells (HUVEC, Lonza, cat. CC-2519) and human mesenchymal stem cells (hMSC, Lonza, cat. PT-2501) were purchased from Lonza (Walkersville, MD).
Cell Culture. All cells were maintained in an incubator at 37 degrees C and 5% CO2 with 95% humidity. […]

[1] = second compound 0.003 µM, first compound 0.00949 µM
[2] = second compound 0.003 µM, first compound 0.03 µM
[3] = second compound 0.003 µM, first compound 0.0949 µM
[4] = second compound 0.003 µM, first compound 0.3 µM
[5] = second compound 0.003 µM, first compound 0.949 µM
[6] = second compound 0.003 µM, first compound 3 µM
[7] = second compound 0.00949 µM, first compound 0.00949 µM
[8] = second compound 0.00949 µM, first compound 0.03 µM
[9] = second compound 0.00949 µM, first compound 0.0949 µM
[10] = second compound 0.00949 µM, first compound 0.3 µM
[11] = second compound 0.00949 µM, first compound 0.949 µM
[12] = second compound 0.00949 µM, first compound 3 µM
[13] = second compound 0.03 µM, first compound 0.00949 µM
[14] = second compound 0.03 µM, first compound 0.03 µM
[15] = second compound 0.03 µM, first compound 0.0949 µM
[16] = second compound 0.03 µM, first compound 0.3 µM
[17] = second compound 0.03 µM, first compound 0.949 µM
[18] = second compound 0.03 µM, first compound 3 µM
[19] = second compound 0.0949 µM, first compound 0.00949 µM
[20] = second compound 0.0949 µM, first compound 0.03 µM
[21] = second compound 0.0949 µM, first compound 0.0949 µM
[22] = second compound 0.0949 µM, first compound 0.3 µM
[23] = second compound 0.0949 µM, first compound 0.949 µM
[24] = second compound 0.0949 µM, first compound 3 µM
[25] = second compound 0.3 µM, first compound 0.00949 µM
[26] = second compound 0.3 µM, first compound 0.03 µM
[27] = second compound 0.3 µM, first compound 0.0949 µM
[28] = second compound 0.3 µM, first compound 0.3 µM
[29] = second compound 0.3 µM, first compound 0.949 µM
[30] = second compound 0.3 µM, first compound 3 µM

Row | SMILES | IC50 (second compound 0.003 µM) | IC50 (second compound 0.00949 µM) | IC50 (second compound 0.03 µM) | IC50 (second compound 0.0949 µM) | IC50 (second compound 0.3 µM) | viability, T/C [3] | viability, T/C [4] | viability, T/C [5] | viability, T/C [6] | viability, T/C [9] | viability, T/C [10] | viability, T/C [11] | viability, T/C [12] | viability, T/C [15] | viability, T/C [16] | viability, T/C [17] | viability, T/C [18] | viability, T/C [21] | viability, T/C [22] | viability, T/C [23] | other results
1 | CNCc1ccc(-c2cc(-c3nc(-c4ccc(S(=O)(=O)C(C)C)cc4)cnc3N)on2)cc1 + CC[C@@]1(O)C(=O)OCc2c1cc1n(c2=O)Cc2cc3c(CN(C)C)c(O)ccc3nc2-1 | 18.6 nM | < 9.49 nM | < 9.49 nM | < 9.49 nM | < 9.49 nM | 3.68% | 4.09% | 2.62% | 0.44% | 3.26% | 4.02% | 2.08% | 0.35% | 3.3% | 3.14% | 2.37% | 0.13% | 4.07% | 3.55% | 2.72% | viability, T/C [1]: 77.6%; viability, T/C [2]: 30.6%; viability, T/C [7]: 32.7%; viability, T/C [8]: 9.13%; viability, T/C [13]: 6.55%; viability, T/C [14]: 4.21%; viability, T/C [19]: 4.97%; viability, T/C [20]: 3.98%; viability, T/C [24]: 0.42%; viability, T/C [25]: 4.42%; viability, T/C [26]: 3.95%; viability, T/C [27]: 3.59%; viability, T/C [28]: 3.99%; viability, T/C [29]: 3.16%; viability, T/C [30]: 0.24%
2 | Cn1ncnc1[C@H]1c2n[nH]c(=O)c3cc(F)cc(c23)N[C@@H]1c1ccc(F)cc1 + CC[C@@]1(O)C(=O)OCc2c1cc1n(c2=O)Cc2cc3c(CN(C)C)c(O)ccc3nc2-1 | < 9.49 nM | < 9.49 nM | < 9.49 nM | < 9.49 nM | < 9.49 nM | 9.97% | 6.78% | 5.19% | 4.32% | 5.6% | 5.88% | 5.84% | 3.69% | 5.25% | 5.52% | 4.93% | 3.48% | 3.48% | 3.91% | 3.43% | viability, T/C [1]: 29.2%; viability, T/C [2]: 16.7%; viability, T/C [7]: 7.72%; viability, T/C [8]: 5.97%; viability, T/C [13]: 5.64%; viability, T/C [14]: 5.6%; viability, T/C [19]: 4.26%; viability, T/C [20]: 4.04%; viability, T/C [24]: 2.72%; viability, T/C [25]: 3.45%; viability, T/C [26]: 4.01%; viability, T/C [27]: 3.37%; viability, T/C [28]: 3.5%; viability, T/C [29]: 2.94%; viability, T/C [30]: 2.13%
3 | O=C(c1cc(Cc2n[nH]c(=O)c3ccccc23)ccc1F)N1CCN(C(=O)C2CC2)CC1 + CC[C@@]1(O)C(=O)OCc2c1cc1n(c2=O)Cc2cc3c(CN(C)C)c(O)ccc3nc2-1 | 505 nM | < 94.9 nM | < 94.9 nM | < 94.9 nM | < 94.9 nM | 63.4% | 56.4% | 41.4% | 18.8% | 14.3% | 11.9% | 10.8% | 7.16% | 5.6% | 5.95% | 5.27% | 6.36% | 5.02% | 4.58% | 4.8% | viability, T/C (second compound 0.003 µM, first compound 9.49 µM): 7.55%; viability, T/C (second compound 0.003 µM, first compound 30 µM): 7.59%; viability, T/C (second compound 0.00949 µM, first compound 9.49 µM): 6.35%; viability, T/C (second compound 0.00949 µM, first compound 30 µM): 7%; viability, T/C (second compound 0.03 µM, first compound 9.49 µM): 5.82%; viability, T/C (second compound 0.03 µM, first compound 30 µM): 6.47%; viability, T/C [24]: 4.07%; viability, T/C (second compound 0.0949 µM, first compound 9.49 µM): 4.67%; viability, T/C (second compound 0.0949 µM, first compound 30 µM): 5.85%; viability, T/C [27]: 3.79%; viability, T/C [28]: 4.17%; viability, T/C [29]: 3.66%; viability, T/C [30]: 4.24%; viability, T/C (second compound 0.3 µM, first compound 9.49 µM): 3.48%; viability, T/C (second compound 0.3 µM, first compound 30 µM): 4.55%
